Data taken from patent US8022055B2, “Betulinic acid derivatives” (Dabur Pharma Limited, priority 2005, dated 2011).
≈ marks a conversion by molar mass, not a printed value. Where two headings read alike, the source gives them in different places.

Legend:
[1] = tested on: PA1; experiment: three day MTT cytotoxicity assay, PA1; format: cell-based, human; conditions: for IC50: Homo sapiens, PA-1, PA1, 72 hours, read-out: IC50 for cell lines PA1; for IC50 for cell lines PA1: PA1, 72 hours
Method: (§1) Briefly, a three day MTT cytotoxicity assay was performed, which is based on the principle of uptake of MTT (3-(4,5-dimethylthiazol-2-yl)-2,5-diphenyl tetrazolium bromide), a tetrazolium salt, by the metabolically active cells where it is metabolized by active mitochondria into a blue colored formazan product that is read spectrophotometrically. MIT was dissolved in phosphate buffered saline with a pH of 7.4 to obtain an MIT concentration of 5 mg/ml; the resulting mixture was filtered through a 0.22-micron filter to sterilize and remove a small amount of insoluble residue. For each type of tumor cell, 10,000 to 15,000 cells were seeded in a 96-well culture plate and incubated with the individual betulinic acid derivatives in a CO2 incubator for a total of 72 hours. Control cells not treated with the betulinic acid derivatives were similarly incubated. The assay was terminated by adding 100 μg (20 μl) of MIT to each well then incubating for additional one hour, and finally adding 50 μl of 10% SDS-0.01N HCl to each well to lyse the cells and dissolve formazan. After incubating for one hour, the plate was read spectrophotometrically at 540 nm and the percentage of cytotoxicity calculated using the following formula: Cytotoxicity percentage=100×[1−(X/R1)], where X=(absorbance of treated sample at 540 nm)−(absorbance of blank at 540 nm) R1=absorbance of control sample at 540 nm. The IC50 Values of the cytotoxicity defined as the concentration at which 50% of the cells are killed in vitro was calculated for each cell line treated with each of the betulinic acid derivatives.

[2] = tested on: DU145; experiment: three day MTT cytotoxicity assay, DU145; format: cell-based, human; conditions: for IC50: Homo sapiens, DU-145, DU145, 72 hours, read-out: IC50 for cell lines DU145; for IC50 for cell lines DU145: DU145, 72 hours
Method: (§2) A number of compounds listed in Table-3 were tested for cytotoxicity against prostate, lung, laryngeal, pancreas, breast, colon and ovarian cancer, leukemia and lymphoma, human tumor cell lines. Briefly, a three day MTT cytotoxicity assay was performed, which is based on the principle of uptake of MTT (3-(4,5-dimethylthiazol-2-yl)-2,5-diphenyl tetrazolium bromide), a tetrazolium salt, by the metabolically active cells where it is metabolized by active mitochondria into a blue colored formazan product that is read spectrophotometrically. MIT was dissolved in phosphate buffered saline with a pH of 7.4 to obtain an MIT concentration of 5 mg/ml; the resulting mixture was filtered through a 0.22-micron filter to sterilize and remove a small amount of insoluble residue. For each type of tumor cell, 10,000 to 15,000 cells were seeded in a 96-well culture plate and incubated with the individual betulinic acid derivatives in a CO2 incubator for a total of 72 hours. Control cells not treated with the betulinic acid derivatives were similarly incubated. The assay was terminated by adding 100 μg (20 μl) of MIT to each well then incubating for additional one hour, and finally adding 50 μl of 10% SDS-0.01N HCl to each well to lyse the cells and dissolve formazan. After incubating for one hour, the plate was read spectrophotometrically at 540 nm and the percentage of cytotoxicity calculated using the following formula: Cytotoxicity percentage=100×[1−(X/R1)], where X=(absorbance of treated sample at 540 nm)−(absorbance of blank at 540 nm) R1=absorbance of control sample at 540 nm. The IC50 Values of the cytotoxicity defined as the concentration at which 50% of the cells are killed in vitro was calculated for each cell line treated with each of the betulinic acid derivatives.

[3] = tested on: SW620; experiment: three day MTT cytotoxicity assay, SW620; format: cell-based, human; conditions: for IC50: Homo sapiens, SW-620, SW620, 72 hours, read-out: IC50 for cell lines SW620; for IC50 for cell lines SW620: SW620, 72 hours
Method: as §1

[4] = tested on: HBL100; experiment: three day MTT cytotoxicity assay, HBL100; format: cell-based, human; conditions: for IC50: Homo sapiens, HBL-100, read-out: IC50 for cell lines HBL100; for IC50 / IC50 for cell lines HBL100: HBL100, 72 hours, MTT
Method: as §2

[5] = tested on: Miapaca; experiment: three day MTT cytotoxicity assay, Miapaca; format: cell-based, human; conditions: for IC50: Homo sapiens, MIA PaCa-2, read-out: IC50 for cell lines Miapaca; for IC50 / IC50 for cell lines Miapaca: Miapaca, 72 hours, MTT
Method: as §2

[6] = tested on: A549; experiment: three day MTT cytotoxicity assay, A549; format: cell-based, human; conditions: for IC50: Homo sapiens, read-out: IC50 for cell lines A549; for IC50 / IC50 for cell lines A549: A549, 72 hours, MTT
Method: as §2

[7] = tested on: normal cells; conditions: literature study; cited from earlier work
[8] = Pharmacokinetic study after intravenous injection; conditions: rat
Method: (§3) Blood samples were taken at various times after administration and plasma was prepared and frozen at −20° C. until analysis. The plasma sample were analyzed by a suitable HPLC method using a C-18 column. The pH of water is adjusted to 3.0 with phosphoric acid. Start the gradient with 70% acetonitrile for 5 minutes and increase the concentration up to 100% within 25 minutes followed by hold at 100% for 10 minutes. It is thus possible to construct the curve showing the plasma concentration as a function of time and to determine different pharmacokinetic parameter of compound studied.

[9] = tested on: NIH 3T3 cells; experiment: NIH3T3 cytotoxicity test (72 h MTT assay); format: cell-based; conditions: NIH3T3, 72 hours
Method: The cytotoxic effect of chemicals upon NIH 3T3 cells in culture is measured by cell metabolism determination using the previously described MIT assay. Healthy NIH 3T3 cells (an established cell-line), when maintained in culture continuously divide and multiply over time. The basis of this test is that a cytotoxic chemical (regardless of site or mechanism of action) will interfere with this process and, thus, result in a reduction of the growth rate as reflected by cell number. The degree of inhibition of growth, related to the concentration of the test compound, provides an indication of toxicity.
The NIH 3T3 cells are maintained in culture and exposed to test compounds over a range of concentrations and the number of viable cells determined after 72 hours exposure by MIT assay. The number of cells in the presence of test chemicals are compared to that observed in control cultures and the percent inhibition of growth calculated. The IC50 concentration (i.e. the concentration producing 50% inhibition of growth) is determined and expressed as μg/ml. A ratio of IC50 of NIH 3T3 cells to tumor cells is an indicator of predicted toxicity of the molecule and is represented as “Safety Index”. The higher the value, the better is the predicted safety of the molecule.

[10] = tested on: K562; experiment: three day MTT cytotoxicity assay, K562; format: cell-based, human; conditions: for IC50 for cell lines K562: K562, 72 hours, MTT
Method: as §2

[11] = tested on: various cancer cell lines; experiment: in vitro cytotoxicity / anticancer activity, overall statement
[12] = rat, in vivo, iv, 10 mg/kg
Method: as §3

[13] = tested on: various cancer cell lines
[14] = tested on: tumor; conditions: murine xenograft models; cited from earlier work
[15] = in vivo; conditions: male, Wistar, rat, iv, 10 mg/kg
Method: as §3

[16] = male, Wistar, plasma, iv, 10 mg/kg

SMILES	IC50 for cell lines NIH3T3 [9]	IC50 for cell lines PA1 [1]	IC50 for cell lines DU145 [2]	IC50 for cell lines SW620 [3]	IC50 for cell lines HBL100 [4]	IC50 for cell lines Miapaca [5]	IC50 for cell lines A549 [6]	IC50 for cell lines K562 [10]	further results
C=C(C)[C@@H]1CC[C@]2(C(=O)O)CC[C@]3(C)[C@H](CC[C@@H]4[C@@]5(C)CC[C@H](O)C(C)(C)[C@@H]5CC[C@]43C)[C@@H]12 [Betulinic Acid (II), 33-hydroxy-lup-20(29)-en-28-oic acid, reference compound]	–	–	–	–	–	–	–	–	IC50 [1]: 11.5 µg/mL (≈ 25.2 µM); IC50 [2]: > 20 µg/mL; IC50 [3]: 13.3 µg/mL (≈ 29 µM); IC50 [4]: 5.02 µg/mL (≈ 11 µM); IC50 [5]: > 20 µg/mL; IC50 [6]: 3.01 µg/mL (≈ 6.59 µM); toxicity against normal cells [7]: minimal toxicity against normal cells; AUC [8, 16]: 13900 ng·h/mL; AUC(0-t) [8, 16]: 10600 ng·h/mL; C0 [8, 16]: 36 µg/mL; Vd [8, 16]: 0.0416 L; half-life [8, 16]: 0.265 h; Kel ([8]; 10 mg/kg intravenous, plasma): 2.60 h⁻¹
C=C(C)[C@@H]1CC[C@]2(C(=O)O)CC[C@]3(C)C(CCC4[C@@]5(C)Cc6c([nH]c7ccc(Cl)cc67)C(C)(C)C5CC[C@]43C)C12 (some centres unmarked) [Compound 5, 5′-Chloro-2,3-didehydroindolo[2′,′:2,3]betulinic acid]	4.6 ± 0.14 µg/mL	2.5 µg/mL	4.9 µg/mL	2.7 µg/mL	11.75 ± 1.65 µg/mL	2.44 ± 0.26 µg/mL	7.14 ± 0.5 µg/mL	9.61 ± 0.78 µg/mL	Specific Index (SI) for cell lines HBL100 ([4]; ratio of IC50 of NIH 3T3 cells to HBL100): 0.391; Specific Index (SI) for cell lines Miapaca ([5]; ratio of IC50 of NIH 3T3 cells to Miapaca): 1.885; Specific Index (SI) for cell lines A549 ([6]; ratio of IC50 of NIH 3T3 cells to A549): 0.644; Specific Index (SI) for cell lines K562 ([10]; ratio of IC50 of NIH 3T3 cells to K562): 0.478; elimination (Kel) as compared to betulinic acid ([8]; 10 mg/kg intravenous): slower elimination; pharmacokinetic properties (in words) ([8]; 10 mg/kg intravenous): significantly superior pharmacokinetic properties over betulinic acid; plasma concentrations as compared to betulinic acid (II) ([8]; 10 mg/kg intravenous): quite high and long lasting; systemic exposure (AUC0-∞) as compared to betulinic acid ([8]; 10 mg/kg intravenous): better systemic exposure; AUC(0-e) ([8]; 10 mg/kg intravenous, plasma): 78400 ng·h/mL; C0 ([8]; 10 mg/kg intravenous, plasma): 132.2 µg/mL; T1/2 ([8]; 10 mg/kg intravenous, plasma): 6.7 h; Vd ([8]; 10 mg/kg intravenous, plasma): 0.00023 L; in vitro cytotoxicity / anticancer activity (in words) [11]: significantly improved anticancer activity over betulinic acid
C=C(C)[C@@H]1CC[C@]2(C(=O)Nc3ccccn3)CC[C@]3(C)C(CCC4[C@@]5(C)Cc6c([nH]c7ccc(Cl)cc67)C(C)(C)C5CC[C@]43C)C12 (some centres unmarked) [Compound 25, 28-N-(2″-pyridine)-5′-chloro-2,3-didehydroindolo[2′,′:2,3]betulinamide]	>20 µg/mL	>20 µg/mL	>20 µg/mL	>20 µg/mL	>20 µg/mL	>20 µg/mL	>20 µg/mL	>20 µg/mL	–
C=C(C)[C@@H]1CC[C@]2(C(=O)Nc3nccs3)CC[C@]3(C)C(CCC4[C@@]5(C)Cc6c([nH]c7ccc(Cl)cc67)C(C)(C)C5CC[C@]43C)C12 (some centres unmarked) [Compound 26, 28-N-(2″-thiazole)-5′-chloro-2,3-didehydroindolo[2′,′:2,3]betulinamide]	>20 µg/mL	>20 µg/mL	>20 µg/mL	>20 µg/mL	>20 µg/mL	>20 µg/mL	>20 µg/mL	>20 µg/mL	–
C#CCNC(=O)[C@]12CC[C@@H](C(=C)C)C1C1CCC3[C@@]4(C)Cc5c([nH]c6ccc(Cl)cc56)C(C)(C)C4CC[C@@]3(C)[C@]1(C)CC2 (some centres unmarked) [Compound 27, 28-N-Propargyl-5′-chloro-2,3-didehydroindolo[2′,′:2,3]betulinamide]	>20 µg/mL	>20 µg/mL	>20 µg/mL	>20 µg/mL	>20 µg/mL	>20 µg/mL	>20 µg/mL	>20 µg/mL	–
C=C(C)[C@@H]1CC[C@]2(C(=O)O)CC[C@]3(C)C(CCC4[C@@]5(C)Cc6c([nH]c7cc(Cl)cc(Cl)c67)C(C)(C)C5CC[C@]43C)C12 (some centres unmarked) [Compound 31, 2,3-Didehydro-4′,6′-dichloroindolo[2′,3′:2,3]betulinic acid]	4.10 µg/mL	>20 µg/mL	>20 µg/mL	>20 µg/mL	>20 µg/mL	>20 µg/mL	5.5 µg/mL	>20 µg/mL	–
C=C(C)[C@@H]1CC[C@]2(C(=O)NC3CC3)CC[C@]3(C)C(CCC4[C@@]5(C)Cc6c([nH]c7ccc(Cl)cc67)C(C)(C)C5CC[C@]43C)C12 (some centres unmarked) [Compound 34, 28-N-Cyclopropyl-5′-chloro-2,3-didehydroindolo[2′,′:2,3]betulinamide]	1.82 µg/mL	>20 µg/mL	>20 µg/mL	>20 µg/mL	>20 µg/mL	>20 µg/mL	>20 µg/mL	>20 µg/mL	–
CC(C)[C@@H]1CC[C@]2(C(=O)O)CC[C@]3(C)C(CCC4[C@@]5(C)CC/C(=N/Oc6ccc([N+](=O)[O-])cc6)C(C)(C)C5CC[C@]43C)C12 (some centres unmarked) [MJ1098-RS (III)]	–	–	–	–	–	–	–	–	IC50 [1]: 3.63 µg/mL (≈ 6.12 µM); IC50 [2]: 0.82 µg/mL (≈ 1.38 µM); IC50 [3]: 3.4 µg/mL (≈ 5.74 µM); IC50 [4]: 2.82 µg/mL (≈ 4.76 µM); IC50 [5]: 3.17 µg/mL (≈ 5.35 µM); IC50 [6]: 1.18 µg/mL (≈ 1.98 µM); elimination (Kel) as compared to betulinic acid [12]: slower elimination; plasma concentrations as compared to betulinic acid (II) [12]: quite high and long lasting; systemic exposure (AUC0-∞) as compared to betulinic acid [12]: better systemic exposure; in vitro cytotoxicity / anticancer activity (in words) [13]: good in vitro cytotoxicity; tumor reduction [14]: shows tumor reduction; AUC [15]: 43600 ng·h/mL; C0 [15]: 101 µg/mL; Vd [15]: 0.0006 L; half-life [15]: 9.9 h
